# Data as given in ChEMBL document CHEMBL1201862, “PubChem BioAssay data set” (2004).
#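 Dose response: 5 concentrations. Exposure: 48 h. Format: 96-well plates. Endpoint: linear interpolation; highest concentration if not reached. Abbreviation: GI50, concentration required for 50% inhibition of growth.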 The source made the active and inactive calls. Rule as the data show it: active = GI50 up to about 1.1 µM and inactive = higher.
# Legend:
# Experiment in all cases: inhibition of tumour cell growth, NCI panel, 48 h
# 786-0 = test system: 786-0
# A549 = test system: A549
# ACHN = test system: ACHN
# CAKI-1 = test system: CAKI-1
# CCRF-CEM = test system: CCRF-CEM
# COLO 205 = test system: COLO 205
# DLD-1 = test system: DLD-1
# DMS-273 = test system: DMS-273
# EKVX = test system: EKVX
# HCC 2998 = test system: HCC 2998
# HCT-116 = test system: HCT-116
# HCT-15 = test system: HCT-15
# HOP-18 = test system: HOP-18
# HOP-62 = test system: HOP-62
# HT-29 = test system: HT-29
# IGROV-1 = test system: IGROV-1
# K562 = test system: K562
# KM-20L2 = test system: KM-20L2
# KM12 = test system: KM12
# LOX IMVI = test system: LOX IMVI
# LXFL 529 = test system: LXFL 529
# M14 = test system: M14
# M19-MEL = test system: M19-MEL
# MOLT-4 = test system: MOLT-4
# Malme-3M = test system: Malme-3M
# NCI-H226 = test system: NCI-H226
# NCI-H23 = test system: NCI-H23
# NCI-H460 = test system: NCI-H460
# NCI-H522 = test system: NCI-H522
# OVCAR-3 = test system: OVCAR-3
# OVCAR-4 = test system: OVCAR-4
# OVCAR-5 = test system: OVCAR-5
# OVCAR-8 = test system: OVCAR-8
# RPMI-8226 = test system: RPMI-8226
# RXF 393 = test system: RXF 393
# RXF 631 = test system: RXF 631
# SF-268 = test system: SF-268
# SF-295 = test system: SF-295
# SF-539 = test system: SF-539
# SK-MEL-28 = test system: SK-MEL-28
# SK-MEL-2 = test system: SK-MEL-2
# SK-MEL-5 = test system: SK-MEL-5
# SK-OV-3 = test system: SK-OV-3
# SN12C = test system: SN12C
# SNB-19 = test system: SNB-19
# SNB-75 = test system: SNB-75
# SNB-78 = test system: SNB-78
# SW-620 = test system: SW-620
# TK-10 = test system: TK-10
# U-251 = test system: U-251
# UACC-257 = test system: UACC-257
# UACC-62 = test system: UACC-62
# UO-31 = test system: UO-31
# XF498 = test system: XF498
# A498 = test system: A498
# DMS-114 = test system: DMS-114
# HL-60 = test system: HL-60
# HOP-92 = test system: HOP-92
# SR = test system: SR
compound,measurement,setting,value
O=c1[nH]c2c3ccccc3ccc2c2cc3c(cc12)OCO3,GI50,786-0,> 100 µM (inactive)
same,GI50,A549,75.9 µM (inactive)
same,GI50,ACHN,69.3 µM (inactive)
same,GI50,CAKI-1,95.9 µM (inactive)
same,GI50,CCRF-CEM,69.8 µM (inactive)
same,GI50,COLO 205,> 100 µM (inactive)
same,GI50,DLD-1,> 100 µM (inactive)
same,GI50,DMS-273,67.1 µM (inactive)
same,GI50,EKVX,49.2 µM (inactive)
same,GI50,HCC 2998,> 100 µM (inactive)
same,GI50,HCT-116,83.2 µM (inactive)
same,GI50,HCT-15,71.6 µM
same,GI50,HOP-18,2 µM (inactive)
same,GI50,HOP-62,89.1 µM (inactive)
same,GI50,HT-29,> 100 µM (inactive)
same,GI50,IGROV-1,> 100 µM (inactive)
same,GI50,K562,38.5 µM (inactive)
same,GI50,KM-20L2,> 100 µM (inactive)
same,GI50,KM12,75.5 µM (inactive)
same,GI50,LOX IMVI,> 100 µM (inactive)
same,GI50,LXFL 529,79.4 µM (inactive)
same,GI50,M14,> 100 µM (inactive)
same,GI50,M19-MEL,> 100 µM (inactive)
same,GI50,MOLT-4,40 µM (inactive)
same,GI50,Malme-3M,> 100 µM (inactive)
same,GI50,NCI-H226,> 100 µM (inactive)
same,GI50,NCI-H23,> 100 µM (inactive)
same,GI50,NCI-H460,> 100 µM (inactive)
same,GI50,NCI-H522,42.5 µM (inactive)
same,GI50,OVCAR-3,> 100 µM (inactive)
same,GI50,OVCAR-4,> 100 µM (inactive)
same,GI50,OVCAR-5,> 100 µM (inactive)
same,GI50,OVCAR-8,> 100 µM (inactive)
same,GI50,RPMI-8226,72.8 µM (inactive)
same,GI50,RXF 393,28.8 µM (inactive)
same,GI50,RXF 631,> 100 µM (inactive)
same,GI50,SF-268,98.6 µM (inactive)
same,GI50,SF-295,> 100 µM (inactive)
same,GI50,SF-539,> 100 µM (inactive)
same,GI50,SK-MEL-28,> 100 µM (inactive)
same,GI50,SK-MEL-2,> 100 µM (inactive)
same,GI50,SK-MEL-5,43.5 µM (inactive)
same,GI50,SK-OV-3,> 100 µM (inactive)
same,GI50,SN12C,> 100 µM (inactive)
same,GI50,SNB-19,> 100 µM (inactive)
same,GI50,SNB-75,31.4 µM (inactive)
same,GI50,SNB-78,> 100 µM (inactive)
same,GI50,SW-620,84.7 µM (inactive)
same,GI50,TK-10,> 100 µM (inactive)
same,GI50,U-251,> 100 µM (inactive)
same,GI50,UACC-257,> 100 µM (inactive)
same,GI50,UACC-62,> 100 µM (inactive)
same,GI50,UO-31,39.4 µM (inactive)
same,GI50,XF498,84.1 µM (inactive)
Cc1cc(Br)cc(C)c1NC(=O)C(=O)C(C(=O)c1ccc2ccccc2c1)C1OC(=O)c2ccccc21 (stereo not drawn),GI50,786-0,6.03 µM (inactive)
same,GI50,A498,12 µM (inactive)
same,GI50,A549,22.4 µM (inactive)
same,GI50,ACHN,15.2 µM (inactive)
same,GI50,CAKI-1,15.7 µM (inactive)
same,GI50,CCRF-CEM,3.94 µM (inactive)
same,GI50,COLO 205,16.3 µM (inactive)
same,GI50,DLD-1,13 µM (inactive)
same,GI50,DMS-114,7.78 µM (inactive)
same,GI50,DMS-273,11 µM (inactive)
same,GI50,EKVX,19.5 µM (inactive)
same,GI50,HCC 2998,11 µM (inactive)
same,GI50,HCT-116,8.91 µM (inactive)
same,GI50,HCT-15,17.3 µM
same,GI50,HL-60,4.45 µM (inactive)
same,GI50,HOP-18,21.7 µM (inactive)
same,GI50,HOP-62,12.2 µM (inactive)
same,GI50,HOP-92,1.58 µM (inactive)
same,GI50,HT-29,18.2 µM (inactive)
same,GI50,IGROV-1,18.2 µM (inactive)
same,GI50,K562,5.93 µM (inactive)
same,GI50,KM-20L2,19.2 µM (inactive)
same,GI50,KM12,15.5 µM (inactive)
same,GI50,LOX IMVI,12.1 µM (inactive)
same,GI50,LXFL 529,7.93 µM (inactive)
same,GI50,M14,15.6 µM (inactive)
same,GI50,M19-MEL,12.4 µM (inactive)
same,GI50,MOLT-4,2.31 µM (inactive)
same,GI50,Malme-3M,14.7 µM (inactive)
same,GI50,NCI-H226,4.85 µM (inactive)
same,GI50,NCI-H23,7.53 µM (inactive)
same,GI50,NCI-H460,4.66 µM (inactive)
same,GI50,NCI-H522,8.65 µM (inactive)
same,GI50,OVCAR-3,19.5 µM (inactive)
same,GI50,OVCAR-4,5.14 µM (inactive)
same,GI50,OVCAR-5,7.14 µM (inactive)
same,GI50,OVCAR-8,7.18 µM (inactive)
same,GI50,RPMI-8226,5.94 µM (inactive)
same,GI50,RXF 393,5.93 µM (inactive)
same,GI50,RXF 631,16.4 µM (inactive)
same,GI50,SF-268,7.98 µM (inactive)
same,GI50,SF-295,4.59 µM (inactive)
same,GI50,SF-539,2.69 µM (inactive)
same,GI50,SK-MEL-28,8.97 µM (inactive)
same,GI50,SK-MEL-2,16 µM (inactive)
same,GI50,SK-MEL-5,11.2 µM (inactive)
same,GI50,SK-OV-3,78.5 µM (inactive)
same,GI50,SN12C,19.7 µM (inactive)
same,GI50,SNB-19,8 µM (inactive)
same,GI50,SNB-75,14.3 µM (inactive)
same,GI50,SNB-78,> 10 µM (inactive)
same,GI50,SR,2.47 µM (inactive)
same,GI50,SW-620,8.02 µM (inactive)
same,GI50,TK-10,21.1 µM (inactive)
same,GI50,U-251,5.78 µM (inactive)
same,GI50,UACC-257,10.7 µM (inactive)
same,GI50,UACC-62,12.9 µM (inactive)
same,GI50,UO-31,15.8 µM (inactive)
same,GI50,XF498,1.14 µM (inactive)
